Consider eight compounds from BindingDB's records for doi:10.1016/s0960-894x(98)00709-4 (Dupont Pharmaceuticals, 1999).

Assay [1] can be described thus: Inhibition of platelet aggregation in heparin treated human platelet rich plasma (PRP).
The nature of assay [2]: Inhibition of platelet aggregation in citreated human platelet rich plasma (PRP).

`N=C(N)c1ccc(C2=NOC(CC(=O)NCCC(=O)O)C2)cc1` (centres undefined) came in with an IC50 in assay [1] of 560 nM. This counts as sub-micromolar. As to `[H]/N=C(/N)c1ccc(C2=NO[C@@H](CC(=O)NC[C@H](NC(=O)OCCCC)C(=O)O)C2)cc1`, the IC50 in assay [1] amounted to 66 nM. Regarding `C=CCOP(=O)(NC(CNC(=O)CC1CC(c2ccc(C(=N)N)cc2)=NO1)C(=O)O)OCC=C` (centres undefined) [2-(Bis-allyloxy-phosphorylamino)-3-{2-[3-(4-carbamimidoyl-phenyl)-4,5-dihydro-isoxazol-5-yl]-acetylamino}-propionic acid], the IC50 stood at 224 nM in assay [1] and 122 nM in assay [2]. Take `CCCCOP(=O)(NC(CNC(=O)CC1CC(c2ccc(C(=N)N)cc2)=NO1)C(=O)O)OCCCC` (centres undefined) [3-{2-[3-(4-Carbamimidoyl-phenyl)-4,5-dihydro-isoxazol-5-yl]-acetylamino}-2-(dibutoxy-phosphorylamino)-propionic acid]: the IC50 in assay [1] was 221 nM; in assay [2], 114 nM. For `CCOP(=O)(NC(CNC(=O)CC1CC(c2ccc(C(=N)N)cc2)=NO1)C(=O)O)OCC` (centres undefined) [3-{2-[3-(4-Carbamimidoyl-phenyl)-4,5-dihydro-isoxazol-5-yl]-acetylamino}-2-(diethoxy-phosphorylamino)-propionic acid], the figures for the IC50 in assay [1] and in assay [2] were 240 nM and 117 nM, respectively. Regarding `CC(C)OP(=O)(NC(CNC(=O)CC1CC(c2ccc(C(=N)N)cc2)=NO1)C(=O)O)OC(C)C` (centres undefined) [3-{2-[3-(4-Carbamimidoyl-phenyl)-4,5-dihydro-isoxazol-5-yl]-acetylamino}-2-(diisopropoxy-phosphorylamino)-propionic acid], the IC50 in assay [1] amounted to 210 nM; in assay [2] it was 103 nM. As for `COP(=O)(NC(CNC(=O)CC1CC(c2ccc(C(=N)N)cc2)=NO1)C(=O)O)OC` (centres undefined) [3-{2-[3-(4-Carbamimidoyl-phenyl)-4,5-dihydro-isoxazol-5-yl]-acetylamino}-2-(dimethoxy-phosphorylamino)-propionic acid], the values for the concentration for half-maximal inhibition (IC50) in assay [1] and in assay [2] were 197 nM and 105 nM, respectively. For `N=C(N)c1ccc(C2=NOC(CC(=O)NCC(NP(=O)(O)O)C(=O)O)C2)cc1` (centres undefined) [3-{2-[3-(4-Carbamimidoyl-phenyl)-4,5-dihydro-isoxazol-5-yl]-acetylamino}-2-phosphonoamino-propionic acid], the IC50 in assay [1] was determined as 376 nM; in assay [2], 260 nM.

For orientation: IC50 means the point on the concentration scale where inhibition reaches its midpoint. A high value points to a need for much substance.
